Test results reported in US20100160335A1, “PYRIDAZINONE DERIVATIVE AND PDE INHIBITOR CONTAINING THE SAME AS ACTIVE INGREDIENT” (KYORIN PHARMACEUTICAL CO., LTD., priority 2007, published 2010).
pIC50: −log10 of the molar value.

What was measured:
PDE4Bcat = target: T1, PDE4Bcat (Homo sapiens, UniProt Q07343); test: Phosphodiesterase inhibitory activity, PDE4 ([3H]cAMP, recombinant enzyme); assay type: biochemical; details: 30° C., 20 minutes, read-out: IC50(μmol/L) PDE4
T1 construct: made in house; host or cells: Sf9 insect cells (baculovirus, Bac-to-Bac / Gateway)

[1] = target: T2, PDE3A catalytic domain (PDE3Acat) (Homo sapiens, UniProt Q14432); test: Phosphodiesterase inhibitory activity, PDE3 ([3H]cAMP, recombinant enzyme); assay type: biochemical; details: 30° C., 20 minutes, read-out: IC50(μmol/L) PDE3
T2 construct: made in house; host or cells: Sf9 insect cells (baculovirus, Bac-to-Bac / Gateway)
T2 sequence (Q14432 674-1093 limits assumed): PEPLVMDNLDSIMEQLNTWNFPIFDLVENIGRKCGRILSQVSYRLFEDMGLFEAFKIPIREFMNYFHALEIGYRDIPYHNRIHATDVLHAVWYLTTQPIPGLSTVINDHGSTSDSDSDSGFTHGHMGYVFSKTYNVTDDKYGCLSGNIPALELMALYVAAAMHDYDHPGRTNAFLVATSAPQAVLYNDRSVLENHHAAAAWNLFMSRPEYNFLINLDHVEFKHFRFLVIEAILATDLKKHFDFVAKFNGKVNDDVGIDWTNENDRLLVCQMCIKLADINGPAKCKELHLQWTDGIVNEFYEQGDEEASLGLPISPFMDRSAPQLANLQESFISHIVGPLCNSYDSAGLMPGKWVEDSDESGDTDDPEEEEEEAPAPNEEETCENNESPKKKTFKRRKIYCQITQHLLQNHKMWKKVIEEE

T1 sequence (Q07343 330-659 limits assumed): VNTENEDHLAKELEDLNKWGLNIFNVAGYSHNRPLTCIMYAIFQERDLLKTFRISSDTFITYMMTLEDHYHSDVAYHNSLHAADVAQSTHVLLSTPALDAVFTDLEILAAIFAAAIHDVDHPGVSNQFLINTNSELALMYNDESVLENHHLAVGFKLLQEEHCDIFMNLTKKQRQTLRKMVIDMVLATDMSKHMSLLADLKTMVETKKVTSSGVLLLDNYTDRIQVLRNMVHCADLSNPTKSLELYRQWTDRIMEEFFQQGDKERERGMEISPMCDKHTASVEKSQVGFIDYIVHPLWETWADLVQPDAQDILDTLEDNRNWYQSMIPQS

| SMILES | pIC50 (PDE4Bcat) | pIC50 [1] |
| --- | --- | --- |
| CCc1ccc2c(C3=NN(CCCCOc4ccc(C5=NNC(=O)CC5C)cc4)C(=O)CC3C)ccc(OC)c2n1 (single isomer, unassigned) [Example 341, 6-(2-Ethyl-8-methoxyquinolin-5-yl)-5-methyl-2-[4-[4-(4-methyl-6-oxo-1,4,5,6-tetrahydropyridazin-3-yl)phenoxy]butyl]-4,5-dihydro-2H-pyridazin-3-one] | > 7.00 | 5.00 to 6.00 |
| COc1ccc(-c2ccc(=O)n(CCCCOc3ccc(C4=NNC(=O)CC4)c(F)c3F)n2)c2cc(C(F)(F)F)oc12 [Example 274, 2-[4-[2,3-Difluoro-4-(6-oxo-1,4,5,6-tetrahydropyridazin-3-yl)phenoxy]butyl]-6-(7-methoxy-2-trifluoromethylbenzofuran-4-yl)-2H-pyridazin-3-one] | > 7.00 | > 7.00 |
| CCc1ccc2c(-c3ccc(=O)n(CCCCOc4ccc(C5=NNC(=O)CC5)cc4)n3)ccc(OC)c2n1 [Example 281, 6-(2-Ethyl-8-methoxyquinolin-5-yl)-2-[4-[4-(6-oxo-1,4,5,6-tetrahydropyridazin-3-yl)phenoxy]butyl]-2H-pyridazin-3-one] | 6.00 to 7.00 | 6.00 to 7.00 |
| CCc1nc2c(OC)ccc(-c3ccc(=O)n(CCCCOc4ccc(C5=NNC(=O)CC5C)c(F)c4F)n3)c2o1 (centres unmarked) [Example 334, 6-(2-Ethyl-4-methoxybenzooxazol-7-yl)-2-[4-[2,3-difluoro-4-(4-methyl-6-oxo-1,4,5,6-tetrahydropyridazin-3-yl)phenoxy]butyl]-2H-pyridazin-3-one] | 6.00 to 7.00 | > 7.00 |
| COc1ccc(-c2ccc(=O)n(CCCCOc3ccc(C4=NNC(=O)CC4C)cc3)n2)c2ccc(C(F)(F)F)nc12 (centres unmarked) [Example 321, 6-(8-Methoxy-2-trifluoromethylquinolin-5-yl)-2-[4-[4-(4-methyl-6-oxo-1,4,5,6-tetrahydropyridazin-3-yl)phenoxy]butyl]-2H-pyridazin-3-one] | 6.00 to 7.00 | 6.00 to 7.00 |
| COc1ccc(C2=NN(CCCCOc3ccc(C4=NNC(=O)CC4C)cc3)C(=O)CC2C)c2cc(C(F)(F)F)sc12 (centres unmarked) [Example 311] | 5.00 to 6.00 | > 7.00 |
| COc1ccc(C2=NN(CCCCOc3ccc(C4=NNC(=O)CC4C)cc3)C(=O)CC2C)c2cc(C(F)(F)F)oc12 (centres unmarked) [Example 310] | > 7.00 | 6.00 to 7.00 |
| CCc1ccc2c(-c3ccc(=O)n(CCCOc4ccc(C5=NNC(=O)CC5C)c(F)c4F)n3)ccc(OC)c2n1 (centres unmarked) [Example 325, 6-(2-Ethyl-8-methoxyquinolin-5-yl)-2-[3-[2,3-difluoro-4-(4-methyl-6-oxo-1,4,5,6-tetrahydropyridazin-3-yl)phenoxy]propyl]-2H-pyridazin-3-one] | 6.00 to 7.00 | 6.00 to 7.00 |
| CCc1ccc2c(-c3ccc(=O)n(CCCCOc4ccc(C5=NNC(=O)CC5)cc4F)n3)ccc(OC)c2n1 [Example 284, 6-(2-Ethyl-8-methoxyquinolin-5-yl)-2-[4-[2-fluoro-4-(6-oxo-1,4,5,6-tetrahydropyridazin-3-yl)phenoxy]butyl]-2H-pyridazin-3-one] | 6.00 to 7.00 | > 7.00 |
| COc1ccc(-c2ccc(=O)n(CCCCOc3ccc(C4=NNC(=O)C4(C)C)c(F)c3F)n2)c2cc(C(F)(F)F)oc12 [Example 275, 2-[4-[2,3-Difluoro-4-(4,4-dimethyl-5-oxo-4,5-dihydro-1H-pyrazol-3-yl)phenoxy]butyl]-6-(7-methoxy-2-trifluoromethylbenzofuran-4-yl)-2H-pyridazin-3-one] | 6.00 to 7.00 | > 7.00 |
| CCc1ccc2c(-c3ccc(=O)n(CCCCOc4ccc(C5=NNC(=O)CC5C)cc4F)n3)ccc(OC)c2n1 (single isomer, unassigned; (-)) [Example 329, (−)-6-(2-Ethyl-8-methoxyquinolin-5-yl)-2-[4-[2-fluoro-4-(4-methyl-6-oxo-1,4,5,6-tetrahydropyridazin-3-yl)phenoxy]butyl]-2H-pyridazin-3-one] | > 7.00 | > 7.00 |
| CCc1ccc2c(-c3ccc(=O)n(CCCCOc4ccc(C5=NNC(=O)CC5C)cc4)n3)ccc(OC)c2n1 (centres unmarked) [Example 280, 6-(2-ethyl-8-Methoxyquinolin-5-yl)-2-[4-[4-(4-methyl-6-oxo-1,4,5,6-tetrahydropyridazin-3-yl)phenoxy]butyl]-2H-pyridazin-3-one] | 6.00 to 7.00 | > 7.00 |
| COc1ccc(-c2ccc(=O)n(CCCCOc3ccc(C4=NNC(=O)CC4C)c(F)c3F)n2)n2cc(C(F)(F)F)nc12 (centres unmarked) [Example 336, 2-[4-[2,3-Difluoro-4-(4-methyl-6-oxo-1,4,5,6-tetrahydropyridazin-3-yl)phenoxy]butyl]-6-(8-methoxy-2-trifluoromethylimidazo[1,2-a]pyridin-5-yl)-2H-pyridazin-3-one] | 6.00 to 7.00 | > 7.00 |
| CCc1ccc2c(-c3ccc(=O)n(CCCCOc4ccc(C5=NNC(=O)C5(C)C)cc4F)n3)ccc(OC)c2n1 [Example 285, 6-(2-Ethyl-8-methoxyquinolin-5-yl)-2-[4-[2-fluoro-4-(4,4-dimethyl-5-oxo-4,5-dihydro-1H-pyrazol-3-yl)phenoxy]butyl]-2H-pyridazin-3-one] | 5.00 to 6.00 | 5.00 to 6.00 |
| CCc1ccc2c(C3=NN(CCCCOc4ccc(C5=NNC(=O)C5(C)C)cc4F)C(=O)CC3C)ccc(OC)c2n1 (centres unmarked) [Example 302, 6-(2-Ethyl-8-methoxyquinolin-5-yl)-5-methyl-2-[4-[2-fluoro-4-(4,4-dimethyl-5-oxo-4,5-dihydro-1H-pyrazol-3-yl)phenoxy]butyl]-4,5-dihydro-2H-pyridazin-3-one] | > 7.00 | 5.00 to 6.00 |
| CCc1ccc2c(-c3ccc(=O)n(CCCCOc4ccc(C5=NNC(=O)C5(C)C)cc4)n3)ccc(OC)c2n1 [Example 282, 6-(2-Ethyl-8-methoxyquinolin-5-yl)-2-[4-[4-(4,4-dimethyl-5-oxo-4,5-dihydro-1H-pyrazol-3-yl)phenoxy]butyl]-2H-pyridazin-3-one] | 6.00 to 7.00 | ≤ 5.00 |
| CCc1ccc2c(-c3ccc(=O)n(CCCCOc4ccc(C5=NNC(=O)CC5C)cc4F)n3)ccc(OC)c2n1 (single isomer, unassigned; (+)) [Example 328, (+)-6-(2-Ethyl-8-methoxyquinolin-5-yl)-2-[4-[2-fluoro-4-(4-methyl-6-oxo-1,4,5,6-tetrahydropyridazin-3-yl)phenoxy]butyl]-2H-pyridazin-3-one] | 6.00 to 7.00 | > 7.00 |
| COc1ccc(-c2ccc(=O)n(CCCCOc3ccc(C4=NNC(=O)CC4C)c(F)c3F)n2)c2sc(C(F)(F)F)nc12 (centres unmarked) [Example 307, 2-[4-[2,3-Difluoro-4-(4-methyl-6-oxo-1,4,5,6-tetrahydropyridazin-3-yl)phenoxy]butyl]-6-(4-methoxy-2-trifluoromethylbenzothiazol-7-yl)-2H-pyridazin-3-one] | > 7.00 | > 7.00 |
| COc1ccc(C2=NN(CCCCOc3ccc(C4=NNC(=O)CC4C)cc3)C(=O)CC2C)c2sc(C(F)(F)F)nc12 (centres unmarked) [Example 313, 6-(4-Methoxy-2-trifluoromethylbenzothiazol-7-yl)-5-methyl-2-[4-[4-(4-methyl-6-oxo-1,4,5,6-tetrahydropyridazin-3-yl)phenoxy]butyl]-4,5-dihydro-2H-pyridazin-3-one] | > 7.00 | 6.00 to 7.00 |
